Earlier results as cited in patent publication US7682606B2, “Methods of producing edible fungi containing activated folates and nutritional supplements containing activated folates” (Jarrow Formulas, Inc., priority 2003, dated 2010).

Key:
homocysteine = details: human
[1] = animal

For CN1c2c(nc(N)[nH]c2=O)NCC1CNc1ccc(C(=O)N[C@@H](CCC(=O)O)C(=O)O)cc1 (single isomer, unassigned) [L-isomer of 5-MTHF, 5-methyltetrahydrofolate], the “Reducing homocysteine, compared with racemic D,L mixtures” value (homocysteine) is given as “superior to racemic mixtures”.
In the case of CN1c2c(nc(N)[nH]c2=O)NCC1CNc1ccc(C(=O)N[C@@H](CCC(=O)O)C(=O)O)cc1 (some centres unmarked) [5-MTHF, 5-methyltetrahydrofolate], the “Intestinal absorption after oral administration” value [1] is given as “readily absorbed from the intestinal tract without degradation”.
